Values of other authors as cited in US11369575B2, “PPARα agonist compositions and methods of use” (The Board of Regents of the University of Oklahoma, priority 2019, dated 2022).

Details: free fenofibrate after IVT dosing

time in which active drug levels disappear: less than 1 week
Compound: CC(C)OC(=O)C(C)(C)Oc1ccc(C(=O)c2ccc(Cl)cc2)cc1 [fenofibrate]
